Measured values as given in patent US20130102593A1, “PYRROLIDINE COMPOUNDS WHICH INHIBIT BETA-SECRETASE ACTIVITY AND METHODS OF USE THEREOF” (priority 2008, published 2013).
Read-outs that look alike come from different tables or passages of the source.

Tests used:
Aβ production = assay: Cellular Aβ IC50 determination (memapsin 2 activity in a cellular assay of Aβ production); assay type: cell-based, Chinese hamster; conditions: Cricetulus griseus, read-out: M2 IC50
Procedure, shortened: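 CHO cells over-expressing human APP695 (London and Swedish mutations) were given serially diluted compound (top near 4 μM, 0.4% DMSO) 48 h after seeding, then incubated 24 h at 37° C. Aβ40 in medium measured by sandwich ELISA relative to control; IC50 from 4-parameter fit.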

[1] = Determination of hepatic intrinsic clearance in liver microsomes; assay type: in vitro ADME; conditions: human liver microsomes, value in text
Procedure: To 500 μl of 200 mM Na^+K^+ phoshapte buffer (pH 7.4), 100 μl of 1 mM EDTA solution was added followed by 100 μl of 2 mg protein/ml human liver microsomes. A 10 μl aliquot of test compound (20 mM stock in 50% acetonitrile) was diluted further with 40 μl of H2O (total assay volume 750 μl. Assay mixture is incubated for 5 minutes at 37° C. The assay was initiated by addition of 250 μl of 4 mM NADPH solution. Incubation was continued at 37° C. Separate reaction mixtures were prepared for 0, 5, 10, 20, and 30 min durations. Individual reactions were halted by addition of 150 μl of 100% acetonitrile. Internal standard (10 μl of 100 ng/ml diazepam solution) was added. Concentration of the test compound in each separate reaction was measured using LC/MS/MS and a standard curve for the test compound according to standard procedures.
The hepatic intrinsic clearance in liver microsome was determined by the following procedure described by Davies and Morris (Davies, B. and Morris, T. (19930) Physiological parameters in laboratory animals and humans. Pharm Res. 10:1093-1095) detailing the relationship of in vitro clearance to physiological parameters in animals and human subjects. […]
where T is time (in minutes), from the relationship of relative amount vs. time. Alternatively, k1 was determined from a transform of the equation, where […]

IC50 (Aβ production; CHO cells over-expressing human APP695, Aβ40 ELISA): 291 nM | IC50 (Aβ production; Chinese hamster ovary cells over-expressing human APP695 with London and Swedish mutations, 24 h, Aβ40 sandwich ELISA): < 500 nM | hepatic intrinsic clearance in liver microsomes (HLM CL) ([1]; listed as N-(1R,2S)-1-((2R,4R)-4-(benzyloxy)pyrrolidin-2-yl)-1-hydroxy-3-phenylpropan-2-y): approximately 337 mL/min/kg | hepatic intrinsic clearance in liver microsomes (HLM CL) ([1]; listed as N-((1R,2S)-1-(2R,4R)-4-(benzyloxy)pyrrolidin-2-yl)-1-hydroxy-3-phenylpropan-2-yl): 337 mL/min/kg
Structure (SMILES): Cc1coc([C@H]2CCCN2C(=O)c2cccc(C(=O)N[C@@H](Cc3ccccc3)[C@H](O)[C@H]3C[C@@H](OCc4ccccc4)CN3)c2)n1 [1-18, N-((1R,2S)-1-((2R,4R)-4-(benzyloxy)pyrrolidin-2-yl)-1-hydroxy-3-phenylpropan-2-yl)-3-((R)-2-(4-methyloxazol-2-yl)pyrrolidine-1-carbonyl)benzamide]
